Assay results: US20120202756A1, “USE OF PRODRUGS TO AVOID GI MEDIATED ADVERSE EVENTS” (priority 2009, published 2012)
≈ marks a conversion by molar mass, not a printed value. Where two headings read alike, the source gives them in different places.

How the values were obtained:
Experiment in all cases: microbe, parasite or virus in culture
Veillonella spp. = conditions: read-out: Minimum inhibitory concentration
Streptococcus oralis = conditions: read-out: Minimum inhibitory concentration
Clostridium difficile = conditions: Clostridioides difficile
Prevotella oralis = conditions: Hoylesella oralis, read-out: Minimum inhibitory concentration
Listeria monocytogenes = conditions: read-out: Minimum inhibitory concentration
[1] = test system: Porphyromonas assacharolyticus; conditions: read-out: Minimum inhibitory concentration
Fusobacterium nucleatum = conditions: read-out: Minimum inhibitory concentration
[2] = test system: Peptostreptococcus magnus; conditions: Finegoldia magna, read-out: Minimum inhibitory concentration
[3] = test system: Fusobacterium necrophorum; conditions: read-out: Minimum inhibitory concentration
Streptococcus agalactiae = conditions: read-out: Minimum inhibitory concentration
Prevotella bivia = conditions: ATCC29303, read-out: Minimum inhibitory concentration

`CCC[C@@H]1C[C@@H](C(=O)N[C@@H]([C@H]2O[C@H](SC)[C@H](O)[C@@H](O)[C@H]2O)[C@H](C)Cl)N(C)C1` [Clindamycin, clindamycin, reference compound] showed an MIC (Veillonella spp.) of no more than 0.03 µg/mL, an MIC (Streptococcus oralis) of no more than 0.03 µg/mL and an MIC (Clostridium difficile; ATCC700057, read-out: Minimum inhibitory concentration, ATCC 700057) of 8 µg/mL (≈ 18.8 µM). For the same compound, the MIC (Clostridium difficile; NCTC13366, read-out: Minimum inhibitory concentration, NCTC 13366 - NAP1/027) was 4 µg/mL (≈ 9.41 µM), the MIC (Clostridium difficile; read-out: Minimum inhibitory concentration, antibiotic-susceptible clinical isolate) was 8 µg/mL (≈ 18.8 µM) and the MIC (Clostridium difficile; read-out: Minimum inhibitory concentration, ribotype 002 - clinical isolate) was 2 µg/mL (≈ 4.71 µM). It also gave an MIC (Clostridium difficile; read-out: Minimum inhibitory concentration, ribotype 011 - clinical isolate) of 4 µg/mL (≈ 9.41 µM), an MIC (Clostridium difficile; read-out: Minimum inhibitory concentration, ribotype 027 - clinical isolate) of 4 µg/mL (≈ 9.41 µM) and an MIC (Clostridium difficile; read-out: Minimum inhibitory concentration, ribotype 050 - clinical isolate) of 4 µg/mL (≈ 9.41 µM). For the same compound, the MIC (Clostridium difficile; read-out: Minimum inhibitory concentration, ribotype 176 - clinical isolate) was 4 µg/mL (≈ 9.41 µM), the MIC (Prevotella oralis) was no more than 0.03 µg/mL and the MIC (Listeria monocytogenes) was 1 µg/mL (≈ 2.35 µM). It also gave an MIC [1] of no more than 0.03 µg/mL, an MIC (Fusobacterium nucleatum) of no more than 0.03 µg/mL and an MIC [2] of 0.5 µg/mL (≈ 1.18 µM). For the same compound, the MIC [3] was no more than 0.03 µg/mL, the MIC (Streptococcus agalactiae) was no more than 0.03 µg/mL and the MIC (Prevotella bivia) was no more than 0.03 µg/mL.
